Entries after “also recorded” stand apart in the source; their conditions may differ.
Legend:
P. aeruginosa = details: head to head with MPLA, 20 μg/mouse
[1] = system: Gram negative and Gram positive bacterial infections; details: mice primed with LPS; cited from earlier work

Compound: CCCCCCCCCCCCCC(=O)OC(CCCCCCCCCCC)CC(=O)NC1C(OCC2OC(O)C(NC(=O)CC(O)CCCCCCCCCCC)C(O)C2O)OC(CO)C(OP(=O)(O)O)C1OC(=O)CC(CCCCCCCCCCC)OC(=O)CCCCCCCCCCCCC.N (stereo not shown) [3D-PHAD, 3-deacyl phosphorylated hexaacyl disaccharide]
- efficacy at augmenting host resistance to bacterial infection compared with MPLA (P. aeruginosa): as effective as MPLA; also recorded: as efficacious as MPLA

Compound: CCCCCCCCCCCCCC(=O)OC(CCCCCCCCCCC)CC(=O)NC1C(O)OC(COC2OC(CO)C(OP(=O)(O)O)C(OC(=O)CC(CCCCCCCCCCC)OC(=O)CCCCCCCCCCCCC)C2NC(=O)CC(CCCCCCCCCCC)OC(=O)CCCCCCCCCCCCC)C(O)C1O.N (stereo not shown) [3D(6-acyl) PHAD, 3-D (6-acyl) phosphorylated hexaacyl disaccharide]
- efficacy at augmenting host resistance to bacterial infection compared with MPLA (P. aeruginosa): as effective as MPLA

Compound: CCCCCCCCCCCCCC(=O)OC(CCCCCCCCCCC)CC(=O)NC1C(OCC2OC(O)C(NC(=O)CC(O)CCCCCCCCCCC)C(OC(=O)CC(O)CCCCCCCCCCC)C2O)OC(CO)C(OP(=O)(O)O)C1OC(=O)CC(CCCCCCCCCCC)OC(=O)CCCCCCCCCCCCC.N (stereo not shown) [PHAD, phosphorylated hexaacyl disaccharide]
- efficacy at augmenting host resistance to bacterial infection compared with MPLA (P. aeruginosa): as effective as MPLA

Compound: Lipopolysaccharide [LPS]
- resistance to infection of primed mice [1]: improved resistance to Gram negative and Gram positive bacterial infections

Reference: patent publication US11389465B2, “Phosphorylated hexaacyl disaccharides (PHADs) for treating or preventing infections” (VANDERBILT UNIVERSITY, priority 2017, dated 2022)
